Consider 33 compounds from patent US8673910B2, “Proteasome inhibitors for selectively inducing apoptosis in cancer cells” (H. Lee Moffitt Cancer Center and Research Institute, priority 2008, dated 2014).

Usually melting point stands for the temperature, or range, at which the solid turns liquid. In the case of `O=C(NS(=O)(=O)c1ccc(NC2=C(Cl)C(=O)c3ccccc3C2=O)cc1)c1ccccc1` [Compound 2c, N-(4-(3-chloro-1,4-dioxo-1,4-dihydronaphthalen-2-ylamino)phenylsulfonyl)benzamide], the melting point fell in the range of 216 to 217 °C.
Then `COc1cnc(NS(=O)(=O)c2ccc(NC3=C(Cl)C(=O)c4ccccc4C3=O)cc2)nc1` [Compound 2e, 4-(3-chloro-1,4-dioxo-1,4-dihydronaphthalen-2-ylamino)-N-(5-methoxypyrimidin-2-yl)benzenesulfonamide], with 269 to 271 °C.
In the case of `Cc1cc(C)nc(NS(=O)(=O)c2ccc(NC3=C(Cl)C(=O)c4ccccc4C3=O)cc2)n1` [Compound 2g, 4-(3-chloro-1,4-dioxo-1,4-dihydronaphthalen-2-ylamino)-N-(4,6-dimethylpyrimidin-2-yl)benzenesulfonamide] it was 210 °C (dec.).
Then `COc1cc(NS(=O)(=O)c2ccc(NC3=C(Cl)C(=O)c4ccccc4C3=O)cc2)nc(OC)n1` [Compound 2i, 4-(3-chloro-1,4-dioxo-1,4-dihydronaphthalen-2-ylamino)-N-(2,6-dimethoxypyrimidin-4-yl)-benzenesulfonamide], with 220 to 222 °C.
Regarding `Cc1ccnc(NS(=O)(=O)c2ccc(NC3=C(Cl)C(=O)c4ccccc4C3=O)cc2)n1` [Compound 2j, 4-(3-chloro-1,4-dioxo-1,4-dihydronaphthalen-2-ylamino)-N-(4-methylpyrimidin-2-yl)-benzenesulfonamide], the melting point is 246 to 248 °C.
In the case of `CC1=C(Nc2ccc(S(=O)(=O)Nc3ccccn3)cc2)C(=O)c2ccccc2C1=O` [Compound 2k, 4-(3-methyl-1,4-dioxo-1,4-dihydronaphthalen-2-ylamino)-N-(pyridin-2-yl)benzenesulfonamide] it was 220 to 222 °C.
Then `CC1=C(Nc2ccc(S(=O)(=O)NC(=O)c3ccccc3)cc2)C(=O)c2ccccc2C1=O` [Compound 2l, N-(4-(3-methyl-1,4-dioxo-1,4-dihydronaphthalen-2-ylamino)phenylsulfonyl)benzamide], with 235 to 237 °C.
In the case of `COc1cnc(NS(=O)(=O)c2ccc(NC3=C(C)C(=O)c4ccccc4C3=O)cc2)nc1` [Compound 2m, N-(5-methoxypyrimidin-2-yl)-4-(3-methyl-1,4-dioxo-1,4-dihydronaphthalen-2-ylamino)-benzenesulfonamide] it was 215 to 217 °C; in that of `COc1cc(NS(=O)(=O)c2ccc(NC3=C(C)C(=O)c4ccccc4C3=O)cc2)nc(OC)n1` [Compound 2n, N-(2,6-dimethoxypyrimidin-4-yl)-4-(3-methyl-1,4-dioxo-1,4-dihydronaphthalen-2-ylamino)-benzenesulfonamide], 255 to 257 °C; in that of `O=C(NS(=O)(=O)c1ccc(NC2=CC(=O)c3ccccc3C2=O)cc1)c1ccccc1` [Compound 2p, N-(4-(1,4-dioxo-1,4-dihydronaphthalen-2-ylamino)phenylsulfonyl)benzamide], 294 to 296 °C.
For the compound `O=C1C=C(Nc2ccc(S(=O)(=O)Nc3ccccn3)cc2)C(=O)c2ccccc21` [Compound 2r, 4-(1,4-dioxo-1,4-dihydronaphthalen-2-ylamino)-N-(pyridin-2-yl)benzenesulfonamide], the melting point is 286 °C (dec.).
Then `CN(C)C1=C(Nc2ccc(S(=O)(=O)Nc3ccccn3)cc2)C(=O)c2ccccc2C1=O` [Compound 3a, 4-(3-(dimethylamino)-1,4-dioxo-1,4-dihydronaphthalen-2-ylamino)-N-(pyridin-2-yl)-benzenesulfonamide], with 118 to 120 °C; and `CN(Cc1ccccc1)C1=C(Nc2ccc(S(=O)(=O)Nc3ccccn3)cc2)C(=O)c2ccccc2C1=O` [Compound 3b, 4-(3-(benzyl(methyl)amino)-1,4-dioxo-1,4-dihydronaphthalen-2-ylamino)-N-(pyridin-2-yl)-benzenesulfonamide], with 135 to 140 °C.
Then `CN1CCN(C2=C(Nc3ccc(S(=O)(=O)Nc4ccccn4)cc3)C(=O)c3ccccc3C2=O)CC1` [Compound 3c, 4-(3-(4-methylpiperazin-1-yl)-1,4-dioxo-1,4-dihydronaphthalen-2-ylamino)-N-(pyridin-2-yl)-benzenesulfonamide], with 222 to 224 °C; and `O=C1C(Nc2ccc(S(=O)(=O)Nc3ccccn3)cc2)=C(N2CCOCC2)C(=O)c2ccccc21` [Compound 3e, 4-(3-morpholino-1,4-dioxo-1,4-dihydronaphthalen-2-ylamino)-N-(pyridin-2-yl)benzenesulfonamide], with 220 to 222 °C; and `CN(C1=C(Cl)C(=O)c2ccccc2C1=O)c1ccc(S(=O)(=O)Nc2ccccn2)cc1` [Compound 6a, 4-((3-chloro-1,4-dioxo-1,4-dihydronaphthalen-2-yl)(methyl)amino)-N-(pyridin-2-yl)benzenesulfonamide], with 152 to 154 °C.
`CCN(C1=C(Cl)C(=O)c2ccccc2C1=O)c1ccc(S(=O)(=O)Nc2ccccn2)cc1` [Compound 6b, 4-((3-chloro-1,4-dioxo-1,4-dihydronaphthalen-2-yl)(ethyl)amino)-N-(pyridin-2-yl)benzenesulfonamide] registered a melting point of 180 to 182 °C.
In the case of `CCCCN(C1=C(Cl)C(=O)c2ccccc2C1=O)c1ccc(S(=O)(=O)Nc2ccccn2)cc1` [Compound 6c, 4-(butyl(3-chloro-1,4-dioxo-1,4-dihydronaphthalen-2-yl)amino)-N-(pyridin-2-yl)benzenesulfonamide] it was 181 to 183 °C; in that of `O=C1C(Cl)=C(N(Cc2ccccc2)c2ccc(S(=O)(=O)Nc3ccccn3)cc2)C(=O)c2ccccc21` [Compound 6d, 4-(benzyl(3-chloro-1,4-dioxo-1,4-dihydronaphthalen-2-yl)amino)-N-(pyridin-2-yl)benzenesulfonamide], 78 to 80 °C.
Compound `O=C1C(Cl)=C(N(Cc2ccc([N+](=O)[O-])cc2)c2ccc(S(=O)(=O)Nc3ccccn3)cc2)C(=O)c2ccccc21` [Compound 6e, 4-((3-chloro-1,4-dioxo-1,4-dihydronaphthalen-2-yl)(4-nitrobenzyl)amino)-N-(pyridin-2-yl)benzenesulfonamide] showed a melting point of 80 to 82 °C.
`O=C1C(Cl)=C(N(Cc2ccc3ccccc3c2)c2ccc(S(=O)(=O)Nc3ccccn3)cc2)C(=O)c2ccccc21` [Compound 6f, 4-((3-chloro-1,4-dioxo-1,4-dihydronaphthalen-2-yl)(naphthalen-2-ylmethyl)amino)-N-(pyridin-2-yl)benzenesulfonamide] yielded a melting point of 165 to 167 °C.
Then `Cc1ccc(CN(C2=C(Cl)C(=O)c3ccccc3C2=O)c2ccc(S(=O)(=O)Nc3ccccn3)cc2)cc1` [Compound 6g, 4-((3-chloro-1,4-dioxo-1,4-dihydronaphthalen-2-yl)(4-methylbenzyl)amino)-N-(pyridin-2-yl)benzenesulfonamide], with 99 to 101 °C.
Then `O=C1C(Cl)=C(N(Cc2ccc(C(F)(F)F)cc2)c2ccc(S(=O)(=O)Nc3ccccn3)cc2)C(=O)c2ccccc21` [Compound 6h, 4-((3-chloro-1,4-dioxo-1,4-dihydronaphthalen-2-yl)(4-(trifluoromethyl)benzyl)amino)-N-(pyridin-2-yl)benzenesulfonamide], with 157 to 159 °C.
Then `O=C1C(Cl)=C(Nc2ccc(S(=O)(=O)Nc3ccccc3)cc2)C(=O)c2ccccc21` [Compound 13b, 4-(3-chloro-1,4-dioxo-1,4-dihydro-naphthalen-2-ylamino)-N-phenyl-benzenesulfonamide], with 220 to 223 °C.
`Cc1cccc(NS(=O)(=O)c2ccc(NC3=C(Cl)C(=O)c4ccccc4C3=O)cc2)c1` [Compound 13c, 4-(3-chloro-1,4-dioxo-1,4-dihydro-naphthalen-2-ylamino)-N-m-tolyl-benzenesulfonamide] had a melting point of 234 to 237 °C.
In the case of `COc1ccccc1NS(=O)(=O)c1ccc(NC2=C(Cl)C(=O)c3ccccc3C2=O)cc1` [Compound 13d, 4-(3-chloro-1,4-dioxo-1,4-dihydro-naphthalen-2-ylamino)-N-(2-methoxy-phenyl)-benzenesulfonamide] it was 198 to 201 °C.
In the case of `COc1cccc(NS(=O)(=O)c2ccc(NC3=C(Cl)C(=O)c4ccccc4C3=O)cc2)c1` [Compound 13e, 4-(3-chloro-1,4-dioxo-1,4-dihydro-naphthalen-2-ylamino)-N-(3-methoxy-phenyl)-benzenesulfonamide] it was 213 to 216 °C; in that of `COc1ccc(NS(=O)(=O)c2ccc(NC3=C(Cl)C(=O)c4ccccc4C3=O)cc2)cc1` [Compound 13f, 4-(3-chloro-1,4-dioxo-1,4-dihydro-naphthalen-2-ylamino)-N-(4-methoxy-phenyl)-benzenesulfonamide], 233 to 234 °C.
In the case of `Cc1ccc(NS(=O)(=O)c2ccc(NC3=C(Cl)C(=O)c4ccccc4C3=O)cc2)cc1` [Compound 13g, 4-(3-chloro-1,4-dioxo-1,4-dihydro-naphthalen-2-ylamino)-N-p-tolyl-benzenesulfonamide] it was 257 to 260 °C.
In turn, `COc1cc(NC2=C(Cl)C(=O)c3ccccc3C2=O)ccc1S(=O)(=O)Nc1ccccc1C` [Compound 13h, 4-(3-chloro-1,4-dioxo-1,4-dihydro-naphthalen-2-ylamino)-2-methoxy-N-o-tolyl-benzenesulfonamide] displayed a melting point of 197 to 200 °C.
In the case of `COc1cc(NC2=C(Cl)C(=O)c3ccccc3C2=O)ccc1S(=O)(=O)Nc1ccc(C)cc1` [Compound 13i, 4-(3-chloro-1,4-dioxo-1,4-dihydro-naphthalen-2-ylamino)-2-methoxy-N-p-tolyl-benzenesulfonamide], the melting point lay in the range of 186 to 189 °C.
Then `COc1ccc(NS(=O)(=O)c2ccc(NC3=C(Cl)C(=O)c4ccccc4C3=O)cc2OC)cc1` [Compound 13j, 4-(3-chloro-1,4-dioxo-1,4-dihydro-naphthalen-2-ylamino)-2-methoxy-N-(4-methoxy-phenyl)-benzenesulfonamide], with 165 to 167 °C; and `COc1cc(NC2=C(Cl)C(=O)c3ccccc3C2=O)ccc1S(=O)(=O)Nc1cccc(C)c1` [Compound 13k, 4-(3-chloro-1,4-dioxo-1,4-dihydro-naphthalen-2-ylamino)-2-methoxy-N-m-tolyl-benzenesulfonamide], with 264 to 267 °C.
